What was measured:
[1] = tested on: General Bacteria (bacterial bird rinse); assay: General Bacteria Assay (Vivione RAPID-B Total Plate Count); type: cell-based
[2] = tested on: Salmonella enterica serovar Anatum (ATCC #9270); assay: Salmonella Assay (liquid sanitizer exposure, log reduction); type: cell-based

O.O.O.O.O.O=S(=O)([O-])[O-].[Cu+2] [Copper, Copper (II) sulfate pentahydrate]
Average Live ([1]; 5 ppm copper, pH at inoculation 5.68, Baseline 1562): 1633
Average Live ([1]; 50 ppm copper, pH at inoculation 4.71, Baseline 1562): 1666
activity against bacteria (in words) ([1]; at 5 ppm and 50 ppm concentrations): negligible activity
Treated Sample Reduction ([2]; 0 ppm chlorine, 10 ppm copper, Solution pH 6.0, Control Sample Baseline 7.02 log, n = 3): 3.83 log
antimicrobial effect (in words) ([2]; at lower ppm): limited antimicrobial effect

O=C(O)CC(O)(CC(=O)O)C(=O)O [citric acid @ 0.25%, citric acid]
Average Live ([1]; pH at inoculation 2.43, Baseline 408): 75

Source: US20170280728A1, “ANTIMICROBIAL COMPOSITIONS AND METHODS OF THEIR USE” (CMS TECHNOLOGY, INC.., priority 2014, published 2017)
